Experimental data: PMC10033419, “Blocking NS3–NS4B interaction inhibits dengue virus in non-human primates” (Nature, 2023)
Values joined by “and” are separate entries in the source; they are usually repeats but may differ in a detail not shown here. Equal values may be shown once. Read-outs that look alike come from different tables or passages of the source.

System: DENV-2 RL
Test: microbe, parasite or virus in culture
Type: cell-based

COc1cc(N[C@H](C(=O)c2c[nH]c3ccc(OC(F)(F)F)cc23)c2ccc(Cl)cc2OC)cc(S(C)(=O)=O)c1 [JNJ-1802]
EC50 (A sample, passage 20, read-out: EC50 values Ave): 32.2 nM | EC50 (A sample, passage 21, read-out: EC50 values Ave): 32.2 nM | EC50 (A sample, passage 22, read-out: EC50 values Ave): 32.2 nM | EC50 (A sample, passage 23, read-out: EC50 values Ave): 32.2 nM | EC50 (B sample, passage 29, read-out: EC50 values Ave): 32.2 nM | EC50 (B sample, passage 30, read-out: EC50 values Ave): 32.2 nM | EC50 (Dengue virus, DENV2, Vero, read-out: EC50 by microscopic evaluation of CPE, experiment A, passage 0): 0.06 nM | EC50 (Dengue virus, DENV2, Vero, read-out: EC50 by microscopic evaluation of CPE, experiment A, passage 5): 0.06 nM | EC50 (Dengue virus, DENV2, Vero, read-out: EC50 by microscopic evaluation of CPE, experiment A, passage 10): 0.25 nM | EC50 (Dengue virus, DENV2, Vero, read-out: EC50 by microscopic evaluation of CPE, experiment A, passage 15): 1 nM | EC50 (Dengue virus, DENV2, Vero, read-out: EC50 by microscopic evaluation of CPE, experiment A, passage 25): 64 nM | EC50 (Dengue virus, DENV2, Vero, read-out: EC50 by microscopic evaluation of CPE, experiment A, passage 30): 260 nM | EC50 (Dengue virus, DENV2, Vero, read-out: EC50 by microscopic evaluation of CPE, experiment A, passage 35): 260 nM | EC50 (Dengue virus, DENV2, Vero, read-out: EC50 by microscopic evaluation of CPE, experiment A, passage 40): 1290 nM | EC50 (Dengue virus, DENV2, Vero, read-out: EC50 by microscopic evaluation of CPE, experiment A, passage 42): 1290 nM | EC50 (Dengue virus, DENV2, Vero, read-out: EC50 by microscopic evaluation of CPE, experiment B, passage 0): 0.06 nM | EC50 (Dengue virus, DENV2, Vero, read-out: EC50 by microscopic evaluation of CPE, experiment B, passage 5): 0.06 nM | EC50 (Dengue virus, DENV2, Vero, read-out: EC50 by microscopic evaluation of CPE, experiment B, passage 20): 0.5 nM | EC50 (Dengue virus, DENV2, Vero, read-out: EC50 by microscopic evaluation of CPE, experiment B, passage 25): 4 nM | EC50 (Dengue virus, DENV2, Vero, read-out: EC50 by microscopic evaluation of CPE, experiment B, passage 35): 80 nM | EC50 (Dengue virus, DENV2, Vero, read-out: EC50 by microscopic evaluation of CPE, experiment B, passage 45): 640 nM | EC50 (Dengue virus, DENV2, Vero, read-out: EC50 by microscopic evaluation of CPE, experiment B, passage 50): 1290 nM | EC50 (Dengue virus, DENV2, Vero, read-out: EC50 values Ave, A sample, passage 1): 3.7e-05 µg/mL and 0.063 nM | EC50 (Dengue virus, DENV2, Vero, read-out: EC50 values Ave, A sample, passage 2): 3.7e-05 µg/mL and 0.063 nM | EC50 (Dengue virus, DENV2, Vero, read-out: EC50 values Ave, A sample, passage 3): 3.7e-05 µg/mL and 0.063 nM | EC50 (Dengue virus, DENV2, Vero, read-out: EC50 values Ave, A sample, passage 4): 3.7e-05 µg/mL and 0.063 nM | EC50 (Dengue virus, DENV2, Vero, read-out: EC50 values Ave, A sample, passage 5): 3.7e-05 µg/mL and 0.063 nM | EC50 (Dengue virus, DENV2, Vero, read-out: EC50 values Ave, A sample, passage 6): 0.126 nM | EC50 (Dengue virus, DENV2, Vero, read-out: EC50 values Ave, A sample, passage 7): 3.7e-05 µg/mL and 0.063 nM | EC50 (Dengue virus, DENV2, Vero, read-out: EC50 values Ave, A sample, passage 8): 3.7e-05 µg/mL and 0.063 nM | EC50 (Dengue virus, DENV2, Vero, read-out: EC50 values Ave, A sample, passage 9): 0.126 nM | EC50 (Dengue virus, DENV2, Vero, read-out: EC50 values Ave, A sample, passage 10): 0.000146 µg/mL and 0.251 nM | EC50 (Dengue virus, DENV2, Vero, read-out: EC50 values Ave, A sample, passage 11): 0.000146 µg/mL and 0.251 nM | EC50 (Dengue virus, DENV2, Vero, read-out: EC50 values Ave, A sample, passage 12): 0.000146 µg/mL and 0.251 nM | EC50 (Dengue virus, DENV2, Vero, read-out: EC50 values Ave, A sample, passage 13): 0.000293 µg/mL and 0.503 nM | EC50 (Dengue virus, DENV2, Vero, read-out: EC50 values Ave, A sample, passage 14): 1.01 nM | EC50 (Dengue virus, DENV2, Vero, read-out: EC50 values Ave, A sample, passage 15): 1.01 nM | EC50 (Dengue virus, DENV2, Vero, read-out: EC50 values Ave, A sample, passage 16): 0.00117 µg/mL and 2.01 nM | EC50 (Dengue virus, DENV2, Vero, read-out: EC50 values Ave, A sample, passage 17): 0.00234 µg/mL and 4.02 nM | EC50 (Dengue virus, DENV2, Vero, read-out: EC50 values Ave, A sample, passage 18): 0.00469 µg/mL and 8.04 nM | EC50 (Dengue virus, DENV2, Vero, read-out: EC50 values Ave, A sample, passage 24): 0.0375 µg/mL and 64.3 nM | EC50 (Dengue virus, DENV2, Vero, read-out: EC50 values Ave, A sample, passage 25): 0.0375 µg/mL and 64.3 nM | EC50 (Dengue virus, DENV2, Vero, read-out: EC50 values Ave, A sample, passage 26): 129 nM | EC50 (Dengue virus, DENV2, Vero, read-out: EC50 values Ave, A sample, passage 27): 0.15 µg/mL and 257 nM | EC50 (Dengue virus, DENV2, Vero, read-out: EC50 values Ave, A sample, passage 28): 0.15 µg/mL and 257 nM | EC50 (Dengue virus, DENV2, Vero, read-out: EC50 values Ave, A sample, passage 29): 0.15 µg/mL and 257 nM | EC50 (Dengue virus, DENV2, Vero, read-out: EC50 values Ave, A sample, passage 30): 0.15 µg/mL and 257 nM | EC50 (Dengue virus, DENV2, Vero, read-out: EC50 values Ave, A sample, passage 31): 129 nM | EC50 (Dengue virus, DENV2, Vero, read-out: EC50 values Ave, A sample, passage 32): 129 nM | EC50 (Dengue virus, DENV2, Vero, read-out: EC50 values Ave, A sample, passage 33): 0.15 µg/mL and 257 nM | EC50 (Dengue virus, DENV2, Vero, read-out: EC50 values Ave, A sample, passage 34): 0.15 µg/mL and 257 nM | EC50 (Dengue virus, DENV2, Vero, read-out: EC50 values Ave, A sample, passage 35): 0.15 µg/mL and 257 nM | EC50 (Dengue virus, DENV2, Vero, read-out: EC50 values Ave, A sample, passage 36): 0.15 µg/mL and 257 nM | EC50 (Dengue virus, DENV2, Vero, read-out: EC50 values Ave, A sample, passage 37): 0.3 µg/mL and 515 nM | EC50 (Dengue virus, DENV2, Vero, read-out: EC50 values Ave, A sample, passage 38): 0.3 µg/mL and 515 nM | EC50 (Dengue virus, DENV2, Vero, read-out: EC50 values Ave, A sample, passage 39): 1290 nM | EC50 (Dengue virus, DENV2, Vero, read-out: EC50 values Ave, A sample, passage 40): 1290 nM | EC50 (Dengue virus, DENV2, Vero, read-out: EC50 values Ave, A sample, passage 41): 1290 nM | EC50 (Dengue virus, DENV2, Vero, read-out: EC50 values Ave, A sample, passage 42 (END)): 1290 nM | EC50 (Dengue virus, DENV2, Vero, read-out: EC50 values Ave, B sample, passage 1): 3.7e-05 µg/mL and 0.063 nM | EC50 (Dengue virus, DENV2, Vero, read-out: EC50 values Ave, B sample, passage 2): 3.7e-05 µg/mL and 0.063 nM | EC50 (Dengue virus, DENV2, Vero, read-out: EC50 values Ave, B sample, passage 3): 3.7e-05 µg/mL and 0.063 nM | EC50 (Dengue virus, DENV2, Vero, read-out: EC50 values Ave, B sample, passage 4): 3.7e-05 µg/mL and 0.063 nM | EC50 (Dengue virus, DENV2, Vero, read-out: EC50 values Ave, B sample, passage 5): 3.7e-05 µg/mL and 0.063 nM | EC50 (Dengue virus, DENV2, Vero, read-out: EC50 values Ave, B sample, passage 6): 0.126 nM | EC50 (Dengue virus, DENV2, Vero, read-out: EC50 values Ave, B sample, passage 7): 0.126 nM
